Data published in publication PMC4105752 (RNA, 2014).

Molecular target: T1, TbEIF4E5 (TbE5) (Trypanosoma brucei, UniProt Q38B99)
T1 sequence (Q38B99 1-195): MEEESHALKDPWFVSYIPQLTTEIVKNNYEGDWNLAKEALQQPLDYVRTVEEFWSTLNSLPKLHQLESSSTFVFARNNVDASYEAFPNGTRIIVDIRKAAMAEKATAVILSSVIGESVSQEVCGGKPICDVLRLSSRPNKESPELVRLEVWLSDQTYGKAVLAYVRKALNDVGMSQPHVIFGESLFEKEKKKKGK
Test: intrinsic protein fluorescence quenching titration
Type: binding

Molecule	Kd	Kas (50 mM HEPES/KOH pH 7.2, 100 mM KCl, 0.5 mM EDTA, 2 mM DTT, 20 °C)
C[n+]1cn([C@@H]2O[C@H](COP(=O)(O)OP(=O)(O)OP(=O)(O)OC[C@H]3O[C@@H](n4cnc5c(N)ncnc54)[C@H](O)[C@@H]3O)[C@@H](O)[C@H]2O)c2nc(N)[nH]c(=O)c21 [m^7GpppA]	8.33 µM	
Nc1nc2c(ncn2[C@@H]2O[C@H](COP(=O)(O)OP(=O)(O)OP(=O)(O)O)[C@@H](O)[C@H]2O)c(=O)[nH]1 [GTP]	~27 µM	
cap 4		0.55 ± 0.01
C[n+]1cn([C@@H]2O[C@H](COP(=O)(O)OP(=O)(O)OP(=O)(O)O)[C@@H](O)[C@H]2O)c2nc(N)[nH]c(=O)c21 [m^7GTP]	1.54 µM	
